Values after ≈ are worked out from the molar mass of the structure shown. “Also recorded” adds a separate entry of the source. Like-named read-outs stand apart in the source and are kept apart here.
Columns and labels:
[1] = test system: M. tuberculosis H37Rv; experiment: microbe, parasite or virus in culture; assay type: cell-based; conditions: > 80% reduction in growth, screened at 20, 2 and 0.2 mg/L, 7H9 complete medium
[2] = test system: M. tuberculosis; design: method as in PMID 31691918; conditions: earlier identified hit; cited from earlier work
[3] = test system: Mycobacterium avium (ATCC 700,891 MAC 101); experiment: microbe, parasite or virus in culture; assay type: cell-based; conditions: > 80% reduction in growth, screened at 20, 2 and 0.2 mg/L, 7H9 complete medium
[4] = biological target: T1, M. tuberculosis leucyl-tRNA synthetase (LeuRS) (Mycobacterium tuberculosis, UniProt P9WFV1); experiment: biochemical; assay type: biochemical
T1 construct: made in house; host or cells: Escherichia coli
T1 sequence (P9WFV1 whole entry): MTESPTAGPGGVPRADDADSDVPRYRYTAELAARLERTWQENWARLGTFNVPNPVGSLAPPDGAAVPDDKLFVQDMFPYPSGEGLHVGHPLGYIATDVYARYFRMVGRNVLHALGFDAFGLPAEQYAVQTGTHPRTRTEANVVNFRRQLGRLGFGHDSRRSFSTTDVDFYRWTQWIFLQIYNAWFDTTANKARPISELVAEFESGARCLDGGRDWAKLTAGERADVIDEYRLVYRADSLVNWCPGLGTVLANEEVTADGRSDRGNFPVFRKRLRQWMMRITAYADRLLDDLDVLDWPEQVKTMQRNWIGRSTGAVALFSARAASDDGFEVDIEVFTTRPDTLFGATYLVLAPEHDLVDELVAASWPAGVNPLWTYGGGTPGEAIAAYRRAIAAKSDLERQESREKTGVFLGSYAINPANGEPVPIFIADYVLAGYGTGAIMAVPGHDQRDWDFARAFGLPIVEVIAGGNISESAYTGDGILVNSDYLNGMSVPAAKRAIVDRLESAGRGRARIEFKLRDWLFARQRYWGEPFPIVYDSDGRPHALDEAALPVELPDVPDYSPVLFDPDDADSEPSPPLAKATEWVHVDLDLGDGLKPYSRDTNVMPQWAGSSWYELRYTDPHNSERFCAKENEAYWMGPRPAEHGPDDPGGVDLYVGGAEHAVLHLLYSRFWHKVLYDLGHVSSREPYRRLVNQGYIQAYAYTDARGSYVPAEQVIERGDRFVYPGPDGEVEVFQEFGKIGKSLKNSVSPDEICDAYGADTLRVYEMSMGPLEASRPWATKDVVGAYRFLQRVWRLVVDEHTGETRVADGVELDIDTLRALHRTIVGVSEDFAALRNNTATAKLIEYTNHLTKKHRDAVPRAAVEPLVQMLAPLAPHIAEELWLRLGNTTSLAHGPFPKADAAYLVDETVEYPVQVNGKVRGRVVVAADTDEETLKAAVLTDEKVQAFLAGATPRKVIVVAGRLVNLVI

[5] = biological target: T1, M. tuberculosis leucyl-tRNA synthetase (LeuRS); design: method as in PMID 31691918; conditions: from the previous article ref 22; cited from earlier work
[6] = biological target: T2, M. tuberculosis methionyl-tRNA synthetase (MetRS) (Mycobacterium tuberculosis, UniProt P9WFU5); design: method as in PMID 31691918; conditions: from the previous article ref 22; cited from earlier work
T2 construct: made in house; host or cells: Escherichia coli
T2 sequence (P9WFU5 whole entry): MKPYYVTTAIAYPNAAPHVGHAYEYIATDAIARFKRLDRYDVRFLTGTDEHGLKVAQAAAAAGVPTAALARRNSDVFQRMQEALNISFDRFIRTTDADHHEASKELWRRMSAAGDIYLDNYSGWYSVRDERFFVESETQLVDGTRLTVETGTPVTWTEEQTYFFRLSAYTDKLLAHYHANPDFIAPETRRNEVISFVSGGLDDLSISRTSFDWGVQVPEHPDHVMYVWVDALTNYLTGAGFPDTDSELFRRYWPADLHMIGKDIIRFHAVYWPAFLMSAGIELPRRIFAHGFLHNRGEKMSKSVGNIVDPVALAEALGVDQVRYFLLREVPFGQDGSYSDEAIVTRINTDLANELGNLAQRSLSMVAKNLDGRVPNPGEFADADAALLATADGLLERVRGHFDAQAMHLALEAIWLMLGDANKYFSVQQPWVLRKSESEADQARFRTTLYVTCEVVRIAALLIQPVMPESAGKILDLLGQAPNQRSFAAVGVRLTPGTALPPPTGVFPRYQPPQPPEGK

[7] = test system: Mycobacterium abscessus (ATCC 19,977); experiment: microbe, parasite or virus in culture; assay type: cell-based; conditions: > 80% reduction in growth, screened at 20, 2 and 0.2 mg/L, 7H9 complete medium
[8] = biological target: T2, M. tuberculosis methionyl-tRNA synthetase (MetRS); experiment: biochemical; assay type: biochemical
[9] = test system: human cytoplasmic LeuRS; design: method as in PMID 28953378; conditions: cited from earlier work
[10] = test system: mycobacterial LeuRS; design: method as in PMID 28953378; conditions: cited from earlier work
[11] = test system: human mitochondrial LeuRS; design: method as in PMID 28953378; conditions: cited from earlier work
[12] = test system: tuberculosis; design: method as in PMID 28953378; conditions: cited from earlier work
[13] = MTT cytotoxicity assay, HepG2; assay type: cell-based, human; conditions: human, hepg2 cells, read-out: CC50, concentration to cause 50% cytotoxicity
Procedure: (§1) We have tested compound 27 for cytotoxicity toward human cell lines HEK293 (human embryonic kidney 293) and HepG2 (human hepatocellular carcinoma cell line) using standard MTT assay.
(§2) Compound cytotoxicity was determined by standard MTT assay[37] using human embryonic kidney 293 (HEK293) and human hepatocellular carcinoma (HepG2) cell lines according to the method described previously. HEK 293 cell line was obtained from the Russian Cell Culture Collection (Institute of Cytology of the Russian Academy of Science, St.Petersburg, Russia) and HepG2 – from the Bank of Cell Lines from human and animal tissue (R. E. Kavetsky Institute of Experimental Pathology, Oncology and Radiobiology, NAS of Ukraine, Kyiv, Ukraine).

[14] = test system: HepG2 (human hepatocellular carcinoma cell line); experiment: MTT cytotoxicity assay, HepG2; assay type: cell-based; conditions: 3.125 µM to 50 µM
Procedure: as §1, §2

[15] = test system: M. tuberculosis H37Rv; experiment: microbe, parasite or virus in culture; assay type: cell-based, Mycobacterium tuberculosis; conditions: read-out: 2-week MIC
[16] = MTT cytotoxicity assay, HEK293; assay type: cell-based, human; conditions: human, hek293 cells, read-out: CC50, concentration to cause 50% cytotoxicity
Procedure: as §1, §2

[17] = test system: HEK293 (human embryonic kidney 293); experiment: MTT cytotoxicity assay, HEK293; assay type: cell-based; conditions: 3.125 µM to 50 µM
Procedure: as §1, §2

[18] = test system: Staphylococcus aureus MetRS; design: method as in PMID 19015366; conditions: S. aureus MetRS versus human mitochondrial MetRS; cited from earlier work
[19] = recombinant enzyme, mean ± spread (n in brackets), negative = activation

COc1ccc(-n2nnc(-c3nc(-c4ccc(F)cc4)no3)c2N)cc1Cl [Compound 17, 3-(3-chloro-4-methoxy-phenyl)-5-[3-(4-fluoro-phenyl)-[1,2,4]oxadiazol-5-yl]-3H-[1,2,3]triazol-4-ylamine]
Growth inhibition cutoff, H37Rv [1]: > 20 mg/L
antibacterial activity toward M. tuberculosis [2]: does not have antibacterial activity
Growth inhibition cutoff, M. avium 700,891 (MAC 101) [3]: > 20 mg/L
LeuRS inhibition activity, % [4, 19]: 51 ± 28 (2) %
IC50 [5]: 13 µM
IC50 [6]: 13.8 µM
Growth inhibition cutoff, M. abscessus 19,977 [7]: > 20 mg/L
MetRS inhibition activity, % [8, 19]: 77 ± 3 (2) %

NC[C@H]1OB(O)c2c(OCCO)ccc(Cl)c21 [GSK656, (S)-3-(Aminomethyl)-4-chloro-7-(2-hydroxyethoxy) benzo [c][1, 2] oxaborol-1 (3 H)-ol]
IC50 [9]: > 300 µM
IC50 [10]: 0.2 µM
IC50 [11]: > 300 µM
efficacy in an animal model of tuberculosis [12]: effective

COc1ccc(Cl)cc1-n1nnc(-c2nc(-c3ccc(F)cc3)no2)c1N [Compound 27]
MIC ([1]; Mycobacterium tuberculosis, H37RV, read-out: Growth inhibition cutoff, H37Rv): > 20 µg/mL
CC50 [13]: > 50 µM
cytotoxicity / effect on cell viability [14]: did not affect cell viability; also recorded: not cytotoxic
MIC ([3]; Mycobacterium avium, ATCC700, read-out: Growth inhibition cutoff, M. avium 700,891 (MAC 101)): > 20 µg/mL
LeuRS inhibition activity, % [4]: 14 ± 12 (2) %
MIC ([15]; Mycobacterium tuberculosis, H37RV, 336 h): 25 µM (≈ 9.67 µg/mL)
MIC [15]: > 50 µM
CC50 [16]: > 50 µM
cytotoxicity / effect on cell viability [17]: did not affect cell viability; also recorded: not cytotoxic
MIC ([7]; Mycobacteroides abscessus, ATCC19, read-out: Growth inhibition cutoff, M. abscessus 19,977): > 20 µg/mL
MetRS inhibition activity, % [8]: 57 ± 11 (3) %
IC50 ([8]; mean ± s.d. (n = 3)): 148 ± 33.2 µM

C=C(F)c1sc(CNCCCNc2cc(O)c3ccccc3n2)c(C)c1Br [REP8839]
affinity for the bacterial enzyme relative to human mitochondrial MetRS [18]: 1000 fold

Cc1cccc(-n2nnc(-c3nc(-c4ccc(F)cc4)no3)c2N)c1 [Compound 18]
Growth inhibition cutoff, H37Rv [1]: > 20 mg/L
Growth inhibition cutoff, M. avium 700,891 (MAC 101) [3]: > 20 mg/L
LeuRS inhibition activity, % [4, 19]: 13 ± 11 (2) %
Growth inhibition cutoff, M. abscessus 19,977 [7]: > 20 mg/L
MetRS inhibition activity, % [8, 19]: 26 ± 20 (2) %

Nc1c(-c2nc(-c3ccc(F)cc3)no2)nnn1-c1ccccc1F [Compound 23]
Growth inhibition cutoff, H37Rv [1]: > 20 mg/L
Growth inhibition cutoff, M. avium 700,891 (MAC 101) [3]: > 20 mg/L
LeuRS inhibition activity, % [4, 19]: 5 ± 7 (2) %
Growth inhibition cutoff, M. abscessus 19,977 [7]: > 20 mg/L
MetRS inhibition activity, % [8, 19]: 7 ± 13 (2) %

— article PMC8010095, “Discovery of novel antituberculosis agents among 3-phenyl-5-(1-phenyl-1H-[1,2,3]triazol-4-yl)-[1,2,4]oxadiazole derivatives targeting aminoacyl-tRNA synthetases” (Scientific Reports, 2021)
